{
  "source": "patent US12133857B2",
  "about": "“Method for prolonging half-life of theanine in vivo” (Anhui Agricultural University, priority 2023, dated 2024)",
  "key": {"[1]": {"assay": "in vivo", "conditions": "rat, po, 500 mg/kg", "method": "1-deoxy-1-L-theanine-D-fructopyranose was recorded as a theanine glycoside 1, 1-deoxy-1-L-theanine-D-galactopyranose was recorded as a theanine glycoside 2, and 1-deoxy-1-L-theanine-D-ribopyranose was recorded as a theanine glycoside 3. • 1. Experimental animals: Male SD rats with the body weight of (180±20) g were used. • 2. Administration and sample collection: The rats were intragastrically administered (n=6), which were randomly divided into two groups, including a theanine group and a theanine glycoside group. The rats were subjected to fasting without limitation of water for 12 h before administration and then allowed to drink water after intragastric administration. The intragastric administration dose was 500 mg/kg. 1 h, 2 h, 4 h, 8 h and 12 h before and after the administration, 0.5 mL of blood was collected from eye sockets of 6 rats in each group, respectively. Blood samples were centrifuged at 3,000 g for 15 min, supernatants were separated to obtain plasma samples, and the plasma samples were stored at −80° C. • 3. Instrument conditions and determination of plasma samples:\n(§1) Instrument: SCIEX Triple Quad™ 5500 LC-MS/MS was used.\nDrawing of a standard curve: 100 μL of blank plasma of the rats was taken, added into 1.5 mL of a 70% methanol aqueous solution and mixed in vortex for 30 s, and a resulting mixture was subjected to ultrasonic treatment in an ice water bath for 10 min, followed by standing at −20° C. for 20 min to precipitate a protein. The protein was centrifuged briefly for 15 s for 2 times, and a supernatant was taken out, dried by a vacuum concentrator at 4° C. and redissolved with 200 μl of methanol. 200 μL of a series of standard solutions of a tested compound and 10 μL of an internal standard (DL-4-chlorophenylmethylamino) were sequentially added to prepare plasma samples of the tested compound with a plasma concentration of 0.1 μM, 1 μM, 10 μM, 100 μM, 1,000 μM and 10,000 μM respectively, followed by LC-MS/MS analysis. With the concentration of the tested compound (x) as the abscissa and the ratio of peak areas of the tested compound and the internal standard (y) as the ordinate, regression calculation was performed by a weighted least square method to obtain a linear regression equation, namely a standard curve. According to the standard curve, the linear range of the tested compound in the plasma of the rats was 0.1 μM-10,000 μM as determined by an LC-MS/MS method. […]\nThe half-life T1/2 was calculated according to formulas below: […]"}, "[2]": {"assay": "in vivo", "conditions": "mouse, po, 500 mg/kg", "method": "1-deoxy-1-L-theanine-D-fructopyranose was recorded as a theanine glycoside 1, 1-deoxy-1-L-theanine-D-galactopyranose was recorded as a theanine glycoside 2, and 1-deoxy-1-L-theanine-D-ribopyranose was recorded as a theanine glycoside 3. • 1. Experimental animals: Male C57BL/6J mice with the body weight of (20±2) g were used. • 2. Administration and sample collection: The mice were intragastrically administered (n=6), which were randomly divided into two groups, including a theanine group and a theanine glycoside group. The mice were subjected to fasting without limitation of water for 12 h before administration and then allowed to drink water after intragastric administration. The intragastric administration dose was 500 mg/kg. 1 h, 2 h, 4 h, 8 h and 12 h before and after the administration, 6 mice in each group were killed by cervical dislocation and then dissected to obtain brain tissues respectively, and the brain tissues were stored at −80° C. for subsequent detection. • 3. Instrument conditions and determination of brain tissue samples:\nas §1\nDrawing of a standard curve: 20 mg of blank brain tissues of the mice were taken, added into 1.5 mL of a 70% methanol aqueous solution and mixed in vortex for 30 s, and a resulting mixture was subjected to ultrasonic treatment in an ice water bath for 10 min, followed by standing at −20° C. for 20 min to precipitate a protein. The protein was centrifuged briefly for 15 s for 2 times, and a supernatant was taken out, dried by a vacuum concentrator at 4° C. and redissolved with 200 μL of methanol. 200 μl of a series of standard solutions of a tested compound and 10 μl of an internal standard (DL-4-chlorophenylmethylamino) were sequentially added to prepare brain tissue samples of the tested compound with a brain tissue concentration of 0.1 μM, 1 μM, 10 μM, 100 μM, 1,000 μM and 10,000 μM respectively, followed by LC-MS/MS analysis. With the concentration of the tested compound (x) as the abscissa and the ratio of peak areas of the tested compound and the internal standard (y) as the ordinate, regression calculation was performed by a weighted least square method to obtain a linear regression equation, namely a standard curve. According to the standard curve, the linear range of the tested compound in the plasma of the mice was 0.1 μM-10,000 μM as determined by an LC/MS/MS method. […]"}},
  "data": [
    {"smiles": "CCNC(=O)CC[C@H](NCC1(O)OC[C@@H](O)[C@@H](O)[C@@H]1O)C(=O)O", "note": "(stereo partly drawn) [Theanine glycoside 1, 1-deoxy-1-L-theanine-D-fructopyranose]", "values": [
      {"measurement": "T1/2 in the blood", "setting": "[1]", "result": "25.70 ± 1.31", "unit": "h"},
      {"measurement": "T1/2 in the brain", "setting": "[2]", "result": "19.56 ± 1.54", "unit": "h"}
    ]},
    {"smiles": "CCNC(=O)CC[C@H](NC1O[C@H](CO)[C@H](O)[C@H](O)[C@H]1O)C(=O)O", "note": "(stereo partly drawn) [Theanine glycoside 2, 1-deoxy-1-L-theanine-D-galactopyranose]", "values": [
      {"measurement": "T1/2 in the blood", "setting": "[1]", "result": "19.94 ± 1.06", "unit": "h"},
      {"measurement": "T1/2 in the brain", "setting": "[2]", "result": "13.55 ± 1.55", "unit": "h"}
    ]},
    {"smiles": "CCNC(=O)CC[C@H](NC1OC[C@@H](O)[C@@H](O)[C@H]1O)C(=O)O", "note": "(stereo partly drawn) [Theanine glycoside 3, 1-deoxy-1-L-theanine-D-ribopyranose]", "values": [
      {"measurement": "T1/2 in the blood", "setting": "[1]", "result": "16.80 ± 1.93", "unit": "h"},
      {"measurement": "T1/2 in the brain", "setting": "[2]", "result": "10.85 ± 0.54", "unit": "h"}
    ]},
    {"smiles": "CCNC(=O)CC[C@H](N)C(=O)O", "note": "[Theanine, L-theanine]", "values": [
      {"measurement": "half-life", "setting": "[1]; male, SD", "result": "2.05 ± 0.12", "unit": "h"},
      {"measurement": "half-life", "setting": "[2]; male, C57BL/6J", "result": "2.07 ± 0.19", "unit": "h"}
    ]}
  ]
}
